Source: patent US20250179013A1, “INHIBITORS OF RNA HELICASE DHX9 AND USES THEREOF” (ACCENT THERAPEUTICS, INC., priority 2022, published 2025)
Read-outs that look alike come from different tables or passages of the source.

Molecular target: T1, Human recombinant DHX9 protein (Homo sapiens, UniProt Q08211)
T1 construct: purchased Viva
Experiment: DHX9 ATPase assay (ADP-Glo biochemical assay)
Details: for DHX9 Biochemical Max Inhibition: maximum inhibition in ATPase assay, 10 μM Aurintricarboxylic acid = 100%

[1] = read-out: DHX9 Biochemical Inflection Point

T1 sequence (Q08211 whole entry): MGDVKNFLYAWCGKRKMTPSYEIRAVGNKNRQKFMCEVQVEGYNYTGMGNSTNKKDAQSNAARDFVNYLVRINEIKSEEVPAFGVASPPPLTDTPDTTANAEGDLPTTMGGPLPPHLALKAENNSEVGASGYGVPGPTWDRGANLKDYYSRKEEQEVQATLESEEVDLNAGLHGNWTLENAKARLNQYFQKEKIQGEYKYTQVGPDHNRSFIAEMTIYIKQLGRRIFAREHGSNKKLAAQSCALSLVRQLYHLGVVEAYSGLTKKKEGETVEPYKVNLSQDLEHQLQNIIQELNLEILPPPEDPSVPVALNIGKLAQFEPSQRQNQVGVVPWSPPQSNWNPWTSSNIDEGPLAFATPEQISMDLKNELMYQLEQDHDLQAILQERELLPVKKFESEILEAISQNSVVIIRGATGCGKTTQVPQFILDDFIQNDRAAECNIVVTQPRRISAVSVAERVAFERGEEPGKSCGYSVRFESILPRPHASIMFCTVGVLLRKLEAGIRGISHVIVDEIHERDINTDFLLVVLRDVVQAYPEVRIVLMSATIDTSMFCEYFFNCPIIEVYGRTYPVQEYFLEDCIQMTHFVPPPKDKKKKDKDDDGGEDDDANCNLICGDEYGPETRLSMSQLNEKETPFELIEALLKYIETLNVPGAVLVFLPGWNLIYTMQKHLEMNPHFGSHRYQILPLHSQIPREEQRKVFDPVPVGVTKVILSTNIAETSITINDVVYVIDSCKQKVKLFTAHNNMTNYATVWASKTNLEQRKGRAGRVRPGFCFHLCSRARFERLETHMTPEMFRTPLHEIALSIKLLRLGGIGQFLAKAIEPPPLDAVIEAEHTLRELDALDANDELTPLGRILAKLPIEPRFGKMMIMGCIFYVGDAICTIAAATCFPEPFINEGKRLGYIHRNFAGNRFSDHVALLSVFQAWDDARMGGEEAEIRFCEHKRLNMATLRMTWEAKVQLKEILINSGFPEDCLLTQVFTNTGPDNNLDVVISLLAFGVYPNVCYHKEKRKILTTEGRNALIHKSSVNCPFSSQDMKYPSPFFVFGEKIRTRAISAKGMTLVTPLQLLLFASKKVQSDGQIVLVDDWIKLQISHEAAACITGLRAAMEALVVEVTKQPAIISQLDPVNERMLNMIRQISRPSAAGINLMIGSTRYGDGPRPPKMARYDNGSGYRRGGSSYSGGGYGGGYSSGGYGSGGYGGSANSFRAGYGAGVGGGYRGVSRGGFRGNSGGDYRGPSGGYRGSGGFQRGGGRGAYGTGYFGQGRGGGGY

| DHX9 Biochemical Max Inhibition [%] | IC50 [1] [nM] | Structure (SMILES) | IC50 [nM] |
| --- | --- | --- | --- |
| 68.9 | 40.5 | CNC(=O)c1ccc(NC(=O)c2csc(C(=O)Nc3cccc(NS(C)(=O)=O)c3)c2)cc1 [Example 139] | – |
| 50.4 | 7270 | CS(=O)(=O)Nc1cccc(NC(=O)c2cc(-c3ccccc3)ccn2)c1 [Example 2] | – |
| 68.9 | 1070 | CC(C)Oc1cccc(NC(=O)c2csc(C(=O)Nc3cccc(NS(C)(=O)=O)c3)c2)c1 [Example 121] | – |
| 70.1 | 980 | COc1cccc(-c2csc(C(=O)Nc3cccc(NS(C)(=O)=O)c3)c2)c1C [Example 67] | – |
| 72.6 | 167 | COc1ccc(OC)c(CCNC(=O)c2csc(C(=O)Nc3cccc(NS(C)(=O)=O)c3)c2)c1 [Example 142] | – |
| 67.1 | 2320 | Cc1cc(C(=O)Nc2cccc(NS(C)(=O)=O)c2)c(C)n1C1CC1 [Example 25] | – |
| 67.7 | 105 | CS(=O)(=O)Nc1cccc(NC(=O)c2cc(C(=O)NCc3ccc4[nH]ccc4c3)cs2)c1 [Example 145] | – |
| 58.6 | 92400 | CCn1ncc(C(=O)Nc2cccc(NS(C)(=O)=O)c2)c1C1CC1 [Example 18] | – |
| 52.5 | 2390 | CS(=O)(=O)Nc1cccc(NC(=O)c2csc(NC3CC3)n2)c1 [Example 13] | – |
| 69.3 | 1490 | CS(=O)(=O)Nc1cccc(NC(=O)c2cnn(Cc3ccccc3)c2)c1 [Example 35, 1-benzyl-N-(3-methanesulfonamidophenyl)pyrazole-4-carboxamide] | – |
| 69.2 | 324 | COc1ccc(NC(=O)c2csc(C(=O)Nc3cccc(NS(C)(=O)=O)c3)c2)cc1 [Example 130] | – |
| 59.7 | 515 | Cc1cc(NC(=O)c2csc(C(=O)Nc3cccc(NS(C)(=O)=O)c3)c2)ccc1Cl [Example 113] | – |
| 66.5 | 182 | CS(=O)(=O)Nc1cccc(NC(=O)c2cc(C(=O)NCc3ccc(CN4CCOCC4)cc3)cs2)c1 [Example 124] | – |
| 38.6 | 345 | CS(=O)(=O)Nc1cccc(NC(=O)c2ccc(-c3ccccc3)cc2)c1 [Example 38] | – |
| 68.9 | 81.9 | CC(NC(=O)c1csc(C(=O)Nc2cccc(NS(C)(=O)=O)c2)c1)c1ccccc1 (stereo not shown) [Example 110] | – |
| 60.6 | 56900 | Cc1ccc(C)n1-c1sccc1C(=O)Nc1cccc(NS(C)(=O)=O)c1 [Example 26] | – |
| 79.8 | 1540 | Cc1ccc(Nc2cccc(C(=O)Nc3cccc(NS(C)(=O)=O)c3)c2)nn1 [Example 10] | – |
| 76.4 | 4080 | CS(=O)(=O)Nc1cccc(NC(=O)c2cccc(OCc3cccs3)c2)c1 [Example 28] | – |
| 64.4 | 708 | CS(=O)(=O)Nc1cccc(NC(=O)c2cc(C(=O)Nc3ccc(OC(F)(F)F)cc3)cs2)c1 [Example 108] | – |
| 61.5 | 698 | COc1ccc(-c2cc(C(=O)Nc3cccc(NS(C)(=O)=O)c3)n[nH]2)cc1 [Example 78] | – |
| 73.3 | 91.5 | CS(=O)(=O)Nc1cccc(NC(=O)c2cc(C(=O)Nc3ccccc3CCO)cs2)c1 [Example 143] | – |
| 55.1 | 3050 | CS(=O)(=O)Nc1cccc(NC(=O)c2cccc(OCc3ccccc3)c2)c1 [Example 4] | – |
| 52.7 | 686 | CS(=O)(=O)Nc1cccc(NC(=O)c2cc(C(=O)Nc3ccc(Oc4ccccc4)cc3)cs2)c1 [Example 117] | – |
| 65.6 | 211 | CC(C)Oc1ccccc1NC(=O)c1csc(C(=O)Nc2cccc(NS(C)(=O)=O)c2)c1 [Example 135] | – |
| 47.7 | 1760 | Cc1ccccc1-c1nc(C(=O)Nc2cccc(NS(C)(=O)=O)c2)cs1 [Example 8] | – |
| 67.2 | 88.9 | CS(=O)(=O)Nc1cccc(NC(=O)c2cc(C(=O)Nc3cnc4ccccn34)cs2)c1 [Example 129] | – |
| 76.6 | 116 | CS(=O)(=O)Nc1cccc(NC(=O)c2cc(C(=O)Nc3ccccc3CC#N)cs2)c1 [Example 138] | – |

| DHX9 Biochemical Max Inhibition [%] | IC50 [1] [nM] | Structure (SMILES) | IC50 [nM] |
| --- | --- | --- | --- |
| 49.6 | 6330 | CS(=O)(=O)Nc1cccc(NC(=O)c2csc(N3CCCCC3)n2)c1 [Example 19] | – |
| 44.3 | 1230 | CS(=O)(=O)Nc1cccc(NC(=O)c2ccc(OCc3ccccc3)cc2)c1 [Example 3] | – |
| 67.9 | 5770 | CS(=O)(=O)Nc1cccc(NC(=O)c2csc(C3CC3)n2)c1 [Example 32] | – |
| 64.7 | 229 | Cc1nc(-c2cccc(NC(=O)c3csc(C(=O)Nc4cccc(NS(C)(=O)=O)c4)c3)c2)cs1 [Example 147] | – |
| 79.1 | 54 | CS(=O)(=O)Nc1cccc(NC(=O)c2cc(-c3ccccc3)c(C(=O)O)s2)c1 [Example 101, 5-[(3-methanesulfonamidophenyl)carbamoyl]-3-phenylthiophene-2-carboxylic acid] | – |
| 68.3 | 59.2 | CS(=O)(=O)Nc1cccc(NC(=O)c2cc(C(=O)Nc3cccc4c3CCO4)cs2)c1 [Example 123] | – |
| 66.5 | 1860 | CS(=O)(=O)Nc1cccc(NC(=O)c2cc(Cc3ccccc3)cs2)c1 [Example 71] | – |
| 67.3 | 504 | Cc1ccc(NC(=O)c2csc(C(=O)Nc3cccc(NS(C)(=O)=O)c3)c2)cc1Cl [Example 104] | – |
| 68.6 | 102 | CS(=O)(=O)Nc1cccc(NC(=O)c2cc(C(=O)NCCN3CCCCC3)cs2)c1 [Example 150] | – |
| 69.1 | 34100 | CS(=O)(=O)Nc1cccc(NC(=O)c2csc(S(=O)(=O)N3CCOCC3)c2)c1 [Example 30] | – |
| 81.3 | 1430 | Cn1nc(C(=O)Nc2cccc(NS(C)(=O)=O)c2)cc1C1CCCC1 [Example 29] | – |
| 74.5 | 70.8 | CS(=O)(=O)Nc1cccc(NC(=O)c2cc(C(=O)NCc3ccc(N4CCOCC4)cc3)cs2)c1 [Example 116] | – |
| 58.2 | 5360 | CS(=O)(=O)Nc1cccc(NC(=O)c2cc(C(=O)Nc3cc(-c4ccccc4)[nH]n3)cs2)c1 [Example 148] | – |
| 72.3 | 67.9 | COc1ccc(NC(=O)c2csc(C(=O)Nc3cccc(NS(C)(=O)=O)c3)c2)cn1 [Example 106] | – |
| 70.4 | 4850 | Cc1cc(C)n(Cc2ccc(C(=O)Nc3cccc(NS(C)(=O)=O)c3)o2)n1 [Example 34] | – |
| 67 | 1720 | CS(=O)(=O)Nc1cccc(NC(=O)c2cccc(-c3ccccc3)c2)c1 [Example 37] | – |
| 69.7 | 196 | CS(=O)(=O)Nc1cccc(NC(=O)c2cc(C(=O)Nc3ccc(OCCN4CCOCC4)cc3)cs2)c1 [Example 122] | – |
| 70.4 | 50.5 | CS(=O)(=O)Nc1cccc(NC(=O)c2cc(C(=O)Nc3cccc(OC(F)(F)F)c3)cs2)c1 [Example 120] | – |
| 48.3 | 3940 | CS(=O)(=O)Nc1cccc(NC(=O)c2ccccc2N2CCCCC2)c1 [Example 9] | – |
| 71.7 | 64.9 | COc1cc(Cl)cc(NC(=O)c2csc(C(=O)Nc3cccc(NS(C)(=O)=O)c3)c2)c1 [Example 125] | – |
| 47.5 | 5650 | Cc1nnc(-c2ccc(C(=O)Nc3cccc(NS(C)(=O)=O)c3)cc2)o1 [Example 11] | – |
| 55.3 | 994 | CS(=O)(=O)Nc1cccc(NC(=O)c2ccc(-n3cccn3)cc2)c1 [Example 39] | – |
| 63.8 | 1610 | CS(=O)(=O)Nc1cccc(NC(=O)c2ccc(S(=O)(=O)Nc3ccncc3)cc2)c1 [Example 27] | – |
| 73.9 | 123 | Cc1ccccc1-c1csc(C(=O)Nc2cccc(NS(C)(=O)=O)c2)c1 [Example 46] | – |
| 64.6 | 146 | CS(=O)(=O)Nc1cccc(NC(=O)c2cc(C(=O)Nc3ccc(-c4ccncc4)cc3)cs2)c1 [Example 128] | – |
| 73.5 | 71.4 | CN(C)C(=O)c1ccc(NC(=O)c2csc(C(=O)Nc3cccc(NS(C)(=O)=O)c3)c2)cc1 [Example 114] | – |
| 70.3 | – | COc1ccc(C)c(-c2csc(C(=O)Nc3cccc(NS(C)(=O)=O)c3)c2)c1 [Example 68] | – |

| Structure (SMILES) | DHX9 Biochemical Max Inhibition [%] | IC50 [1] [nM] | IC50 [nM] |
| --- | --- | --- | --- |
| Cc1cc(C(=O)Nc2cccc(NS(C)(=O)=O)c2)nn1Cc1ccccc1 [Example 154, 1-benzyl-N-(3-methanesulfonamidophenyl)-5-methyl-1H-pyrazole-3-carboxamide] | 68.4 | 3890 | – |
| CS(=O)(=O)Nc1cccc(NC(=O)c2cc(-c3ccccc3)c(Br)s2)c1 [Example 98, 5-bromo-N-(3-(methylsulfonamido)phenyl)-4-phenylthiophene-2-carboxamide] | 77.7 | 543 | – |
| CS(=O)(=O)Nc1cccc(NC(=O)c2cc(NCc3ccccc3)cs2)c1 [Example 155, 4-(benzylamino)-N-(3-(methylsulfonamido)phenyl)thiophene-2-carboxamide] | 72.3 | 1010 | – |
| CS(=O)(=O)Nc1cccc(NC(=O)c2cc(-c3ccccc3)cs2)n1 [Example 156, N-(6-methanesulfonamidopyridin-2-yl)-4-phenylthiophene-2-carboxamide] | 63.7 | – | 1920 |
